Patent US9717243B2, “Piperidinecarboxylic acid derivatives as fungicides” (priority 2013, dated 2017)

Assay: LogP by HPLC on reversed phase columns (EEC directive 79/831 Annex V.A8)
Type: physicochemical
Conditions: not given
Method: Calibration was done with straight-chain alkan2-ones (with 3 to 16 carbon atoms) with known LogP values (measurement of LogP values using retention times with linear interpolation between successive alkanones). Lambda-max-values were determined using UV-spectra from 200 nm to 400 nm and the peak values of the chromatographic signals.

| Log P[a] | SMILES |
| --- | --- |
| 3.44 | COC(=O)C1(c2nc(C3=NOC(c4c(F)cccc4F)C3)cs2)CCN(C(=O)Cn2nc(C(F)F)cc2C(F)F)CC1 (stereo not shown) [Example I-1] |
| 3.61 | C#CCOc1ccccc1C1CC(c2csc(C3(C(=O)OC)CCN(C(=O)Cn4nc(C(F)F)cc4C(F)F)CC3)n2)=NO1 (stereo not shown) [Example I-4] |
| 3.48 | COC(=O)C1(c2nc(C3=NOC(c4ccccc4)C3)cs2)CCN(C(=O)Cn2nc(C(F)F)cc2C(F)F)CC1 (stereo not shown) [Example I-5] |
| 2.86 | COC(=O)C1(c2nc(C3=NOC(c4c(Cl)cccc4OS(C)(=O)=O)C3)cs2)CCN(C(=O)Nc2cn(C(F)F)nc2C)CC1 (stereo not shown) [Example I-13] |
| 2.73 | COC(=O)C1(c2nc(C3=NOC(c4c(Cl)cccc4OS(C)(=O)=O)C3)cs2)CCN(C(=O)Nc2cn(C)nc2C(F)F)CC1 (stereo not shown) [Example I-14] |
| 3.00 | C#CCOc1ccccc1C1CC(c2csc(C3(C(=O)OC)CCN(C(=O)Nc4cc(C(F)F)nn4C)CC3)n2)=NO1 (stereo not shown) [Example I-15] |
| 3.00 | C#CCOc1ccc(F)c(F)c1C1CC(c2csc(C3(C(=O)OC)CCN(C(=O)Nc4cc(C(F)F)nn4C)CC3)n2)=NO1 (stereo not shown) [Example I-16] |
| 3.02 | C#CCOc1ccccc1C1CC(c2csc(C3(C(=O)OC)CCN(C(=O)Nc4cn(C(F)F)nc4C)CC3)n2)=NO1 (stereo not shown) [Example I-17] |
| 3.04 | C#CCOc1ccc(F)c(F)c1C1CC(c2csc(C3(C(=O)OC)CCN(C(=O)Nc4cn(C(F)F)nc4C)CC3)n2)=NO1 (stereo not shown) [Example I-18] |
| 2.53 | COC(=O)C1(c2nc(C3=NOC(c4ccccc4OS(C)(=O)=O)C3)cs2)CCN(C(=O)Nc2cn(C)nc2C(F)F)CC1 (stereo not shown) [Example I-19] |
| 2.88 | C#CCOc1ccccc1C1CC(c2csc(C3(C(=O)OC)CCN(C(=O)Nc4cn(C)nc4C(F)F)CC3)n2)=NO1 (stereo not shown) [Example I-20] |
| 2.88 | C#CCOc1ccc(F)c(F)c1C1CC(c2csc(C3(C(=O)OC)CCN(C(=O)Nc4cn(C)nc4C(F)F)CC3)n2)=NO1 (stereo not shown) [Example I-21] |
| 3.71 | CCOC(=O)C1(c2nc(C3=NOC(c4c(Cl)cccc4OS(C)(=O)=O)C3)cs2)CCN(C(=O)Cn2nc(C(F)F)cc2C(F)F)CC1 (stereo not shown) [Example I-22] |
| 3.73 | CCOC(=O)C1(c2nc(C3=NOC(c4c(F)cccc4F)C3)cs2)CCN(C(=O)Cn2nc(C(F)F)cc2C(F)F)CC1 (stereo not shown) [Example I-24] |
| 3.76 | CCOC(=O)C1(c2nc(C3=NOC(c4ccccc4)C3)cs2)CCN(C(=O)Cn2nc(C(F)F)cc2C(F)F)CC1 (stereo not shown) [Example I-25] |
| 3.51 | CCOC(=O)C1(c2nc(C3=NOC(c4ccccc4OS(C)(=O)=O)C3)cs2)CCN(C(=O)Cn2nc(C(F)F)cc2C(F)F)CC1 (stereo not shown) [Example I-26] |
| 3.87 | C#CCOc1ccccc1C1CC(c2csc(C3(C(=O)OCC)CCN(C(=O)Cn4nc(C(F)F)cc4C(F)F)CC3)n2)=NO1 (stereo not shown) [Example I-27] |
| 3.85 | C#CCOc1ccc(F)c(F)c1C1CC(c2csc(C3(C(=O)OCC)CCN(C(=O)Cn4nc(C(F)F)cc4C(F)F)CC3)n2)=NO1 (stereo not shown) [Example I-28] |
| 3.96 | CC(C)OC(=O)C1(c2nc(C3=NOC(c4c(Cl)cccc4OS(C)(=O)=O)C3)cs2)CCN(C(=O)Cn2nc(C(F)F)cc2C(F)F)CC1 (stereo not shown) [Example I-29] |
| 3.99 | CC(C)OC(=O)C1(c2nc(C3=NOC(c4c(F)cccc4F)C3)cs2)CCN(C(=O)Cn2nc(C(F)F)cc2C(F)F)CC1 (stereo not shown) [Example I-31] |
| 4.04 | CC(C)OC(=O)C1(c2nc(C3=NOC(c4ccccc4)C3)cs2)CCN(C(=O)Cn2nc(C(F)F)cc2C(F)F)CC1 (stereo not shown) [Example I-32] |
| 4.14 | C#CCOc1ccccc1C1CC(c2csc(C3(C(=O)OC(C)C)CCN(C(=O)Cn4nc(C(F)F)cc4C(F)F)CC3)n2)=NO1 (stereo not shown) [Example I-33] |
| 4.09 | C#CCOc1ccc(F)c(F)c1C1CC(c2csc(C3(C(=O)OC(C)C)CCN(C(=O)Cn4nc(C(F)F)cc4C(F)F)CC3)n2)=NO1 (stereo not shown) [Example I-34] |
| 4.19 | CS(=O)(=O)Oc1cccc(Cl)c1C1CC(c2csc(C3(C(=O)OCc4ccccc4)CCN(C(=O)Cn4nc(C(F)F)cc4C(F)F)CC3)n2)=NO1 (stereo not shown) [Example I-35] |
| 4.21 | O=C(Cn1nc(C(F)F)cc1C(F)F)N1CCC(C(=O)OCc2ccccc2)(c2nc(C3=NOC(c4c(F)cccc4F)C3)cs2)CC1 (stereo not shown) [Example I-37] |
| 4.26 | O=C(Cn1nc(C(F)F)cc1C(F)F)N1CCC(C(=O)OCc2ccccc2)(c2nc(C3=NOC(c4ccccc4)C3)cs2)CC1 (stereo not shown) [Example I-38] |
| 4.34 | C#CCOc1ccccc1C1CC(c2csc(C3(C(=O)OCc4ccccc4)CCN(C(=O)Cn4nc(C(F)F)cc4C(F)F)CC3)n2)=NO1 (stereo not shown) [Example I-39] |
| 4.31 | C#CCOc1ccc(F)c(F)c1C1CC(c2csc(C3(C(=O)OCc4ccccc4)CCN(C(=O)Cn4nc(C(F)F)cc4C(F)F)CC3)n2)=NO1 (stereo not shown) [Example I-40] |
| 3.80 | C=CCOC(=O)C1(c2nc(C3=NOC(c4c(Cl)cccc4OS(C)(=O)=O)C3)cs2)CCN(C(=O)Cn2nc(C(F)F)cc2C(F)F)CC1 (stereo not shown) [Example I-41] |

| SMILES | Log P[a] |
| --- | --- |
| COC(=O)C1(c2nc(C3=NOC(c4ccccc4OS(C)(=O)=O)C3)cs2)CCN(C(=O)Nc2cc(C(F)F)nn2C)CC1 (stereo not shown) [Example I-8] | 2.64 |

Same assay, conditions: Table 1, compounds of formula (I); LC-UV, acidic range, 0.1% formic acid in water and acetonitrile as eluent

| SMILES | Log P[a] |
| --- | --- |
| COC(=O)C1(c2nc(C3=NOC(c4ccccc4-c4ccccc4)C3)cs2)CCN(C(=O)Cn2nc(C(F)F)cc2C(F)F)CC1 (stereo not shown) [Example I-2] | 4.36 |
| COC(=O)C1(c2nc(C3=NOC(c4c(Cl)cccc4OS(C)(=O)=O)C3)cs2)CCN(C(=O)Cn2nc(C(F)F)cc2C(F)F)CC1 (stereo not shown) [Example I-6] | 3.44 |
| CCOC(=O)C1(c2nc(C3=NOC(c4ccccc4-c4ccccc4)C3)cs2)CCN(C(=O)Cn2nc(C(F)F)cc2C(F)F)CC1 (stereo not shown) [Example I-23] | 4.64 |
| CC(C)OC(=O)C1(c2nc(C3=NOC(c4ccccc4-c4ccccc4)C3)cs2)CCN(C(=O)Cn2nc(C(F)F)cc2C(F)F)CC1 (stereo not shown) [Example I-30] | 4.92 |
| O=C(Cn1nc(C(F)F)cc1C(F)F)N1CCC(C(=O)OCc2ccccc2)(c2nc(C3=NOC(c4ccccc4-c4ccccc4)C3)cs2)CC1 (stereo not shown) [Example I-36] | 5.08 |
| C=CCOC(=O)C1(c2nc(C3=NOC(c4ccccc4-c4ccccc4)C3)cs2)CCN(C(=O)Cn2nc(C(F)F)cc2C(F)F)CC1 (stereo not shown) [Example I-42] | 4.72 |

Same assay, conditions: Table 1, compounds of formula (I); LC-UV, acidic range, 0.1% formic acid in water and acetonitrile as eluent; read-out: Log P[a]

| SMILES | chromatographic logP |
| --- | --- |
| COC(=O)C1(c2nc(C3=NOC(c4c(Cl)cccc4OS(C)(=O)=O)C3)cs2)CCN(C(=O)Nc2cc(C(F)F)nn2C)CC1 (stereo not shown) [Example I-12, methyl 4-[4-(5-{2-chloro-6-[(methylsulfonyl)oxy]phenyl}-4,5-dihydro-1,2-oxazol-3-yl)-1,3-thiazol-2-yl]-1-{[3-(difluoromethyl)-1-methyl-1H-pyrazol-5-yl]carbamoyl}piperidine-4-carboxylate] | 2.84 |

Same assay, conditions: pH 2.7; synthesis intermediates in preparation examples; read-out: LogP (pH 2.7)

| SMILES | chromatographic logP |
| --- | --- |
| CC(=O)C1=NOC(c2c(Cl)cccc2OS(C)(=O)=O)C1 (stereo not shown) [2-(3-acetyl-4,5-dihydro-1,2-oxazol-5-yl)-3-chlorophenyl methanesulfonate] | 2.46 |
| CS(=O)(=O)Oc1cccc(Cl)c1C1CC(C(=O)CBr)=NO1 (stereo not shown) [2-[3-(bromoacetyl)-4,5-dihydro-1,2-oxazol-5-yl]-3-chlorophenyl methanesulfonate] | 2.93 |
| CS(=O)(=O)Oc1ccccc1C1CC(C(=O)CCl)=NO1 (stereo not shown) [2-[3-(chloroacetyl)-4,5-dihydro-1,2-oxazol-5-yl]phenyl methanesulfonate] | 2.54 |
